Laboratory results as given in the supplement of paper PMC10307832.

What was measured:
Assay in all cases: relative viability (nuclei count vs DMSO), 5 days (fraction); higher = more cells survive
[1] = system: PC-3 [JPC-3]
Method in brief: (§1)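 One day after seeding in 1536-well plates, lung cancer cell lines were dosed by pin tool. Dosing was either single-drug or a fixed anchor-drug dose plus five library-drug doses (not always all listed) in √10 steps. After 5 days, nuclei were stained in one fix-and-stain step and counted on 4× images, and relative viability is the nuclei count of treated wells over that of vehicle wells, given as the median of duplicate plates.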

[2] = system: NCI-H1944
Method in brief: as §1

[3] = system: NCI-H1703
Method in brief: as §1

[4] = system: HCC-44
Method in brief: as §1

[5] = system: A-427
Method in brief: as §1

[6] = system: NCI-H1563
Method in brief: as §1

[7] = system: A549
Method in brief: as §1

[8] = system: IA-LM
Method in brief: as §1

[9] = system: EBC-1
Method in brief: as §1

[10] = system: NCI-H1299
Method in brief: as §1

[11] = system: Calu-6
Method in brief: as §1

Compound	relative viability ([1]; first compound 0.253 µM)	relative viability ([1]; first compound 0.8 µM)	relative viability ([1]; first compound 2.53 µM)	relative viability ([2]; first compound 0.08 µM)	relative viability ([2]; first compound 0.253 µM)	relative viability ([2]; first compound 0.8 µM)	relative viability ([2]; first compound 2.53 µM)	relative viability ([3]; first compound 0.08 µM)	relative viability ([3]; first compound 0.253 µM)	relative viability ([3]; first compound 0.8 µM)	relative viability ([3]; first compound 2.53 µM)	relative viability ([4]; first compound 0.08 µM)	relative viability ([4]; first compound 0.253 µM)	relative viability ([4]; first compound 0.8 µM)	relative viability ([4]; first compound 2.53 µM)	relative viability ([5]; first compound 0.08 µM)	relative viability ([5]; first compound 0.253 µM)	relative viability ([5]; first compound 0.8 µM)	relative viability ([5]; first compound 2.53 µM)	relative viability ([7]; first compound 0.08 µM)	other results
Oc1nc(-c2ccc(C(F)(F)F)cc2)nc2c1CSCC2 [XAV939] + NC(=O)Nc1cc(-c2cccc(F)c2)sc1C(=O)N[C@H]1CCCNC1 [AZD7762] (partner 0.2 µM)	0.691	0.753	0.801	0.589	0.539	0.477	0.382	0.156	0.137	0.138	0.111	0.899	0.89	0.953	0.872	0.816	0.684	0.706	0.696	–	–
Oc1nc(-c2ccc(C(F)(F)F)cc2)nc2c1CSCC2 [XAV939] + Nc1nc2[nH]cc(CCc3ccc(C(=O)N[C@@H](CCC(=O)O)C(=O)O)cc3)c2c(=O)[nH]1 [Pemetrexed] (partner 0.2 µM)	1.04	0.946	1.11	0.714	0.623	0.584	0.501	–	–	–	–	0.614	0.59	0.636	0.616	0.613	0.953	0.962	0.837	–	relative viability ([6]; first compound 0.08 µM): 0.823; relative viability ([6]; first compound 0.253 µM): 0.685; relative viability ([6]; first compound 0.8 µM): 0.659; relative viability ([6]; first compound 2.53 µM): 0.47
Oc1nc(-c2ccc(C(F)(F)F)cc2)nc2c1CSCC2 [XAV939] + Nc1ncn([C@H]2C[C@H](O)[C@@H](CO)O2)c(=O)n1 [Decitabine] (partner 2 µM)	0.724	0.837	0.784	0.424	0.439	0.44	0.403	–	–	–	–	0.969	0.861	0.928	0.878	0.627	0.606	0.527	0.518	0.291	relative viability ([7]; first compound 0.8 µM): 0.315; relative viability ([7]; first compound 2.53 µM): 0.228
Oc1nc(-c2ccc(C(F)(F)F)cc2)nc2c1CSCC2 [XAV939] + O=C(CCCCCCC(=O)Nc1ccccc1)NO [Vorinostat] (partner 1 µM)	0.76	0.769	0.816	0.55	0.625	0.508	0.354	–	–	–	–	0.981	0.919	0.947	1.04	0.804	0.869	0.895	0.745	–	relative viability ([8]; first compound 0.08 µM): 1.08; relative viability ([8]; first compound 0.253 µM): 0.664; relative viability ([8]; first compound 0.8 µM): 0.951; relative viability ([8]; first compound 2.53 µM): 0.778
Oc1nc(-c2ccc(C(F)(F)F)cc2)nc2c1CSCC2 [XAV939] + O=C(c1cc(Cc2n[nH]c(=O)c3ccccc23)ccc1F)N1CCN(C(=O)C2CC2)CC1 [Olaparib] (partner 8 µM)	0.997	1.17	1.06	0.421	0.279	0.365	0.342	0.415	0.236	0.408	0.485	0.935	0.904	0.958	0.866	0.785	0.584	0.706	0.663	0.357	relative viability ([9]; first compound 0.08 µM): 0.722; relative viability ([9]; first compound 0.253 µM): 0.623; relative viability ([9]; first compound 0.8 µM): 0.619; relative viability ([9]; first compound 2.53 µM): 0.607; relative viability ([8]; first compound 0.08 µM): 0.824; relative viability ([8]; first compound 0.253 µM): 0.633; relative viability ([8]; first compound 0.8 µM): 0.728; relative viability ([8]; first compound 2.53 µM): 0.699; relative viability ([7]; first compound 0.253 µM): 0.265; relative viability ([7]; first compound 0.8 µM): 0.246; relative viability ([7]; first compound 2.53 µM): 0.19; relative viability ([10]; first compound 0.08 µM): 0.937; relative viability ([10]; first compound 0.253 µM): 0.883; relative viability ([10]; first compound 0.8 µM): 0.931; relative viability ([10]; first compound 2.53 µM): 0.914; relative viability ([11]; first compound 0.08 µM): 0.556; relative viability ([11]; first compound 0.253 µM): 0.547; relative viability ([11]; first compound 0.8 µM): 0.544; relative viability ([11]; first compound 2.53 µM): 0.504
